Among the test systems are SR; SF-268; HCT-15; KM12; HCC 2998; OVCAR-5; SF-539; COLO 205; NCI-H23; HOP-92; UACC-257; OVCAR-4; HT-29; NCI-H226; EKVX; OVCAR-3; SNB-19; MOLT-4.
Holding throughout (assay): NCI anticancer screen, dose series, 48 h

Each structure is given as a SMILES string.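 How tested: cells in 96-well plates exposed to compound for 48 hours at five concentrations. GI50 marks 50% less growth.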 The source made the active and inactive calls. No stated cut-off is given here; in the data, active = GI50 up to about 1.1 µM and inactive = higher.

With `CC[C@@H]([C@H](O)c1ccccc1Cl)[N+](=O)[O-]`, the GI50 in the assay on SR is 0.324 µM (active); in the assay on SF-268, > 100 µM (inactive); with HCT-15 it was 1.33 µM; with KM12, > 100 µM (inactive); with HCC 2998, > 100 µM (inactive); with OVCAR-5, > 100 µM (inactive). In addition, the GI50 with SF-539 was 59 µM (inactive); in the assay on COLO 205, > 100 µM (inactive); in the assay with NCI-H23, > 100 µM (inactive); in the assay on HOP-92, > 100 µM (inactive); in the assay on UACC-257, > 100 µM (inactive); in the assay on OVCAR-4, > 100 µM (inactive). The GI50 in the assay with HT-29, in the assay on NCI-H226, with EKVX, in the assay with OVCAR-3 and in the assay with SNB-19 was > 100 µM (inactive) in each case.

As to `Cc1ccc(C(=O)N/N=C(\N=N\c2ccc(C(=O)O)cc2)c2ccc(N(CCC#N)CCC#N)cc2C)cc1`, the GI50 in the assay with SR was > 100 µM (inactive); in the assay with HCT-15, above 100 µM; in the assay on KM12, > 100 µM (inactive); in the assay on HCC 2998, > 100 µM (inactive); with MOLT-4 it was > 100 µM (inactive); in the assay on OVCAR-5, > 100 µM (inactive). The GI50 in the assay with SF-539, in the assay on COLO 205, in the assay on NCI-H23, in the assay with HOP-92, with UACC-257 and with OVCAR-4 was > 100 µM (inactive) each time. The GI50 with HT-29 was > 100 µM (inactive); in the assay on NCI-H226, > 100 µM (inactive); in the assay with EKVX, > 100 µM (inactive); in the assay with OVCAR-3, 62.8 µM (inactive); in the assay with SNB-19, > 100 µM (inactive).

For `CC(=O)O[C@H]1C(=O)[C@@]2(C)C(C(OC(=O)c3ccccc3)[C@]3(O)CC(OC(=O)C(O)C(NC(=O)c4ccccc4)c4ccc(F)cc4)C(C)=C1C3(C)C)[C@]1(OC(C)=O)CO[C@@H]1C[C@@H]2O` (stereo partly drawn), the GI50 was < 0.001 µM (active) in the assay with SR; < 0.001 µM (active) in the assay with SF-268; 0.0129 µM with HCT-15; < 0.001 µM (active) with KM12; 0.00124 µM (active) with HCC 2998; 0.00359 µM (active) with MOLT-4. In addition, the GI50 in the assay with OVCAR-5 was 0.00141 µM (active); in the assay on SF-539, < 0.001 µM (active); in the assay on COLO 205, < 0.001 µM (active); in the assay on NCI-H23, 0.0011 µM (active); in the assay on HOP-92, 3.43 µM (inactive); in the assay with UACC-257, 1.17 µM (inactive). Also, the GI50 in the assay with OVCAR-4 was 0.0904 µM (active); in the assay with HT-29 it was < 0.001 µM (active); in the assay with EKVX, 0.00857 µM (active); with OVCAR-3 it was < 0.001 µM (active); in the assay with SNB-19 it was 0.00252 µM (active).

With `Cn1c(=O)c2c(nc(NCCCCl)n2CC(=O)O)n(C)c1=O`, the GI50 in the assay with SR was < 0.01 µM (active); with SF-268, > 100 µM (inactive); in the assay with HCT-15, above 100 µM; in the assay with KM12 it was > 100 µM (inactive); in the assay with HCC 2998, > 100 µM (inactive); in the assay on MOLT-4 it was 2.74 µM (inactive). In addition, the GI50 with OVCAR-5, in the assay on COLO 205, with NCI-H23, in the assay on HOP-92, with UACC-257 and with OVCAR-4 was > 100 µM (inactive) in each case. In addition, the GI50 with HT-29, in the assay on NCI-H226, in the assay on EKVX, with OVCAR-3 and with SNB-19 was > 100 µM (inactive) each time.

The values are drawn from ChEMBL document CHEMBL1201862, “PubChem BioAssay data set” (2004).
